Reference: patent publication US20120157448A1, “COMPOUNDS FOR TREATING NEURODEGENERATIVE DISEASES” (priority 2010, published 2012)

molecular target: T1, BACE-1 (Homo sapiens, UniProt P56817); assay: Cellular BACE-1 inhibition assay (in vitro cellular Amyloidβ 1-40 production, HTRF immunoassay); format: cell-based; conditions: inhibition of Amyloidβ 1-40 production; HEK-293 cells stably transfected with wild type APP695; 48 hours incubation; average where tested more than once; read-out: IC50
T1 construct: endogenous in cells; host or cells: HEK-293 cells stably transfected with wild type APP695
T1 sequence (P56817 46-501): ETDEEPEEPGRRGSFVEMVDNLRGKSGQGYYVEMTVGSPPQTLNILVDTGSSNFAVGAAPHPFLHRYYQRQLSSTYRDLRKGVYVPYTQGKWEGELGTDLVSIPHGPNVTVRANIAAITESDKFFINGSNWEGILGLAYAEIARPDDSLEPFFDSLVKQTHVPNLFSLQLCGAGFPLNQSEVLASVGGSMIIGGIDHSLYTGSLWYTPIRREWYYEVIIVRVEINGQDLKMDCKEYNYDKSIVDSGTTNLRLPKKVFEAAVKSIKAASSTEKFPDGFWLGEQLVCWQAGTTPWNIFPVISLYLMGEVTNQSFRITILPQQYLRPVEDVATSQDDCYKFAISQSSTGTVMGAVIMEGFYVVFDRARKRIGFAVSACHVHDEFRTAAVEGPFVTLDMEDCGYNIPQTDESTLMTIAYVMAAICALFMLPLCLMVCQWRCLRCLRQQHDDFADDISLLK
Description: Materials and Methods: HEK-293 cells stably transfected with a DNA construct containing the coding sequence for the wild type APP695 sequence were grown in Dulbecco's Modified Eagle Medium (“DMEM”) supplemented with 10% fetal bovine serum, penicillin/streptomycin and 150 μg/mL G418. Cells were plated in 96-well plates at 35,000 cells/well and allowed to attach for 8-12 hours. Media was changed to DMEM supplemented with 10% fetal bovine serum, penicillin/streptomycin 15 minutes prior to compound addition. Diluted compounds were then added at a final concentration of 0.5% DMSO. After 48 hours, 4 μL of media from each well was added to a corresponding well of a 384 well plate (Perkin Elmer Cat#6008280) containing the HTRF reagents. HTRF reagents were obtained from the CisBio Amyloid β 1-40 peptide assay kit (Cat#62B40PEC) and were prepared as follows anti-peptide β (1-40)-Cryptate and anti-peptide […] were stored in 2 plate aliquots at −80° C. Diluent and Reconstitution buffer were stored at 4° C. Aliquots of the two antibodies were diluted 1:100 with Reconstitution buffer, and this mixture was diluted 1:2 with Diluent. 12 μL of the reagent mixture was added to the required wells of the 384 well assay plate. The assay plate was incubated at 4° C. for 17 hours and then analyzed for fluorescence at 665 and 620 nm. The following compounds were tested in the above assay. Some compounds were tested more than once, and the average is reported below.

Row | IC50 [nM] | SMILES
1 | 90.2 | NC1=NC2(CS1)c1cc(-c3cncnc3)ccc1OC1CCC(O)C[C@@H]12 (stereo in doubt) [Example 34, (4a′S*,9aR*)-2-amino-7′-(pyrimidin-5-yl)-1′,2′,3′,4′,4a′,9a′-hexahydro-5,4-spiro[thiazole-4,9′-xanthen]-2′-ol]
2 | 421 | CCOCC1CCC2Oc3ccc(-c4cncc(Cl)c4)cc3C3(COC(N)=N3)[C@H]2O1 (stereo in doubt) [Example 98, (4a′S*,10a′R*)-8′45-chloropyridin-3-yl)-2′-(ethoxymethyl)-3′,4′,4a′,10a′-tetrahydro-2H,5H-spiro[oxazole-4,10′-pyrano[3,2-b]chromen]-2-amine]
3 | 3080 | CN1C(=O)CC2(N=C1N)c1cc(-c3cc(F)cc(Cl)c3)ccc1OC1CC3(CCC12)OCCO3 (stereo not drawn) [Example 3, 2″-amino-7′-(3-chloro-5-fluorophenyl)-1″-methyl-2′,4′,4′a,5″,6″,9′a-hexahydro-1′H,1″H-dispiro[1,3-dioxolane-2,3′-xanthene-9′,4″-pyrimidine]-6″-one]
4 | 1190 | CN1C(=O)CC2(N=C1N)c1cc(-c3cc(F)cc(Cl)c3)ccc1OC1CC(=O)CCC12 (stereo not drawn) [Example 4, 2-amino-7′-(3-chloro-5-fluorophenyl)-1-methyl-1′,4′,4a′,9a′-tetrahydro-1H-spiro[pyrimidine-4,9′-xanthene]-3′,6(2′H,5H)-dione]
5 | 64.2 | NC1=NC2(CO1)c1cc(-c3cncc(Cl)c3)ccc1OC1CCC(F)CC12 (stereo not drawn) [Example 27, 7′-(5-chloropyridin-3-yl)-2′-fluoro-1′,2′,3′,4′,4a′,9a′-hexahydro-5H-spiro[oxazole-4,9′-xanthen]-2-amine]
6 | 2550 | NC1=NC2(CO1)c1cc(-c3cncc(Cl)c3)ccc1O[C@H]1CCC(O)C[C@H]12 (stereo partly drawn) [Example 48, (4a′S,9a′S)-2-amino-7′-(5-chloropyridin-3-yl)-1′,2′,3′,4′,4a′,9a′-hexahydro-5H-spiro[oxazole-4,9′-xanthen]-2′-ol]
7 | 33.5 | COC1CCC2Oc3ccc(-c4cncc(Cl)c4)cc3C3(COC(N)=N3)C2C1 (stereo not drawn) [Example 54, 7′-(5-chloropyridin-3-yl)-2′-methoxy-1′,2′,3′,4′,4a′,9a′-hexahydro-5H-spiro[oxazole-4,9′-xanthen]-2-amine]
8 | 48.3 | N#Cc1cc(Cl)cc(-c2ccc3c(c2)[C@@]2(COC(N)=N2)[C@H]2C[C@@H](O)CC[C@@H]2O3)c1 [Example 140, 3-((2′S,4R,4a′S,9a′R)-2-amino-2′-hydroxy-1′,2′,3′,4′,4a′,9a′-hexahydro-5H-spiro[oxazole-4,9′-xanthen]-7′-yl)-5-chlorobenzonitrile]
9 | 192 | NC1=N[C@@]2(CS1)c1cc(-c3cncnc3)ccc1O[C@H]1CC[C@H](O)C[C@@H]12 [Example 146, (2′S,4R,4a′S,9a′R)-2-amino-7′-(pyrimidin-5-yl)-1′,2′,3′,4′,4a′,9a′-hexahydro-5H-spiro[thiazole-4,9′-xanthen]-2′-ol]
10 | 100 | NC1=N[C@@]2(CO1)c1cc(-c3cncnc3)ccc1O[C@H]1CC[C@H](OCC3CC3)C[C@@H]12 [Example 150, (2′S,4R,4a′S,9a′R)-2′-(cyclopropylmethoxy)-7′-(pyrimidin-5-yl)-1′,2′,3′,4′,4a′,9a′-hexahydro-5H-spiro[oxazole-4,9′-xanthen]-2-amine]
11 | 71.4 | CC(C)O[C@H]1CCC2Oc3ccc(-c4cccnc4F)cc3C3(COC(N)=N3)[C@H]2C1 (stereo partly drawn) [Example 155, (2′S,4a′S,9aR)-7′-(2-fluoropyridin-3-yl)-2′-isopropoxy-1′,2′,3′,4′,4a′,9a′-hexahydro-5H-spiro[oxazole-4,9′-xanthen]-2-amine]
12 | 76.1 | CCO[C@H]1CC[C@@H]2Oc3ccc(-c4cc(F)cc(C#N)c4)cc3C3(COC(N)=N3)[C@H]2C1 (stereo partly drawn) [Example 159, 3-((2′S,4a′S,9a′R)-2-amino-2′-ethoxy-1′,2′,3′,4′,4a′,9a′-hexahydro-5H-spiro[oxazole-4,9′-xanthen]-7′-yl)-5-fluorobenzonitrile]
13 | 630 | NC1=NC2(CO1)c1cc(-c3cccnc3F)ccc1OC1CCC3(CCO3)C[C@@H]12 (stereo partly drawn) [Example 199]
14 | 5290 | C[C@@]12CCO[C@@H]1[C@@]1(COC(N)=N1)c1cc(-c3cc(F)cc(Cl)c3)ccc1O2 [Example 266, (3aR,4′S,9aR)-7-(3-chloro-5-fluorophenyl)-3a-methyl-2,3,3a,9a-tetrahydro-5′H-spiro[furo[3,2-b]chromene-9,4′-oxazol]-2′-amine]

Row | SMILES | IC50 [nM]
15 | N#Cc1cc(Cl)cc(-c2ccc3c(c2)[C@@]2(COC(N)=N2)[C@H]2C[C@@H](OC4CCC4)CC[C@@H]2O3)c1 [Example 156, 3-((2′S,4R,4a′S,9a′R)-2-amino-2′-cyclobutoxy-1′,2′,3′,4′,4a′,9a′-hexahydro-5H-spiro[oxazole-4,9′-xanthen]-7′-yl)-5-chlorobenzonitrile] | 92.8
